Source: ChEMBL document CHEMBL1201862, “PubChem BioAssay data set” (2004)
Blank lines part the entries; values can stand above or below the compound they belong to. The source made the active and inactive calls.

Key:
[1] = biological target: Beta-galactosidase (Escherichia coli, UniProt Q8VNN2); test: PubChem AID 485352; type: functional
[2] = biological target: T1, Type-1 angiotensin II receptor (Homo sapiens, UniProt P30556); test: AT1 receptor antagonists, dose response, selectivity assay for APJ receptor antagonist project, cell-based, uHTS hits (AID 463214); type: functional;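 note: antagonist potency against angiotensin II stimulated AT1 response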
T1 sequence (P30556 whole entry): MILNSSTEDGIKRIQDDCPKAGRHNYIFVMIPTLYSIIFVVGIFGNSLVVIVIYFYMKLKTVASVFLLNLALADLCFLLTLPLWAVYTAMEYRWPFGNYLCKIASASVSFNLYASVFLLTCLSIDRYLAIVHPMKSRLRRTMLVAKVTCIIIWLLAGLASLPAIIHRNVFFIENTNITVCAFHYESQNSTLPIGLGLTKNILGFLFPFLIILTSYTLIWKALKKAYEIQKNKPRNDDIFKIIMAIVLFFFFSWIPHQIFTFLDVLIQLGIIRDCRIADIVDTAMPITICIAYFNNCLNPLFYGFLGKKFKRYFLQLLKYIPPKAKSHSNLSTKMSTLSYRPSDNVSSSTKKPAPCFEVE

[3] = biological target: Peroxisome proliferator-activated receptor gamma/Nuclear receptor coactivator 1 (Homo sapiens, UniProt P37231); test: TR-FRET dose response biochemical High Throughput Screening assay for agonists of the steroid receptor coactivator 1 (SRC-1) recruitment by the peroxisome proliferator-activated receptor gamma (PPAR gamma): non-selective agonists. [Related pubchem assays (depositor defined):AID1300, AID1808, AID504735, AID631]; type: protein assay
[4] = biological target: Peroxisome proliferator-activated receptor gamma/Nuclear receptor coactivator 3 (Homo sapiens, UniProt P37231); test: TR-FRET dose response biochemical High Throughput Screening assay for agonists of the steroid receptor coactivator 3 (SRC-3) recruitment by the peroxisome proliferator-activated receptor gamma (PPAR gamma): non-selective agonists. [Related pubchem assays: 1301 (Confirmation screen.), 1048 (Primary screen.)]; type: functional
[5] = biological target: Peroxisome proliferator-activated receptor gamma/Nuclear receptor coactivator 2 (Homo sapiens, UniProt P37231); test: TR-FRET dose response biochemical High Throughput Screening assay for agonists of the steroid receptor coactivator 2 (SRC-2) recruitment by the peroxisome proliferator-activated receptor gamma (PPAR gamma): non-selective agonists. [Related pubchem assays: 1297, 1032 ]; type: functional
[6] = biological target: T2, Short transient receptor potential channel 4 (Mus musculus, UniProt Q9QUQ5); test: mouse TRPC4 channel inhibitors, dose response, cell-based, HEK293 TRPC4/mu-opioid, Fluo-4 calcium (AID 434942); type: functional;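 note: potency of inhibitors blocking the TRPC4 calcium response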
T2 sequence (Q9QUQ5 whole entry): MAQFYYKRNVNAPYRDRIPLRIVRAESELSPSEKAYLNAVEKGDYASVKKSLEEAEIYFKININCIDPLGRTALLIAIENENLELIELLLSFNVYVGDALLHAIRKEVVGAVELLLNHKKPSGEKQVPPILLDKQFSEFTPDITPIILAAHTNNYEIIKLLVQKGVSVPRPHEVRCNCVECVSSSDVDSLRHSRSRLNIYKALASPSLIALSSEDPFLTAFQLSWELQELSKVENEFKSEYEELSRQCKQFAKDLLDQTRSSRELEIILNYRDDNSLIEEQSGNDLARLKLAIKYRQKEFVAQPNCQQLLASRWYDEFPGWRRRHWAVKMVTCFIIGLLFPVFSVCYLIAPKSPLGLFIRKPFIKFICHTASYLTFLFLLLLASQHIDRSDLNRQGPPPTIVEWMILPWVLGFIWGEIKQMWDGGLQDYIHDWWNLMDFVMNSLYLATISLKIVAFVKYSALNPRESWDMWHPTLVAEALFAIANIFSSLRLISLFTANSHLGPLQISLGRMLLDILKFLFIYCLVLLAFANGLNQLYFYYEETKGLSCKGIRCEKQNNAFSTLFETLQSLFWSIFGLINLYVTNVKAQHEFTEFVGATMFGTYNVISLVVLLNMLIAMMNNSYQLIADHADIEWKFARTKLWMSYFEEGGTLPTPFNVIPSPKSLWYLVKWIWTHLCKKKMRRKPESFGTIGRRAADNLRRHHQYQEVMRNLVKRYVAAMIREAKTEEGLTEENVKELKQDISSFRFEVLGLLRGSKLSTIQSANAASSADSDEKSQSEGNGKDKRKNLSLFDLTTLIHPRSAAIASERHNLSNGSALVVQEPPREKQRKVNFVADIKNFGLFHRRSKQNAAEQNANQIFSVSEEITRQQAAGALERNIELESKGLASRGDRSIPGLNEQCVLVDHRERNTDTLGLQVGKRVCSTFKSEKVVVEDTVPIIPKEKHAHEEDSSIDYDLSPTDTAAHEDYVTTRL

[7] = biological target: DNA (cytosine-5)-methyltransferase 1 (Homo sapiens, UniProt P26358); test: DNMT1 methyltransferase inhibitors, confirmation, biochemical, fluorescent molecular beacon (AID 602386); type: functional
[8] = biological target: T3, Ubiquitin-conjugating enzyme E2 N (Homo sapiens, UniProt P61088); type: functional
T3 sequence (P61088 whole entry): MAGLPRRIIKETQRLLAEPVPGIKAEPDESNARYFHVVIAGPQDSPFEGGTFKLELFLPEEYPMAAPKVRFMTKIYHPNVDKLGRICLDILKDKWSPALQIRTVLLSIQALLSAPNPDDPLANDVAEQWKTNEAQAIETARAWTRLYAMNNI

[9] = biological target: Cytochrome P450 2C19 (Homo sapiens, UniProt P33261); test: Cytochrome panel assay with activity outcomes. Panel member name: p450-cyp2c19 Compounds with AC50 equal or less than 10 uM are considered active; type: functional
[10] = inhibitors of intracellular T. cruzi replication, confirmation, NIH3T3 host cells, beta-gal luminescence (AID 2044); type: functional, cell-based;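 note: intracellular parasites grown in NIH/3T3 mouse fibroblasts as host cells; luminescent beta-galactosidase reporter signal from transgenic T. cruzi replicating inside host cells; inhibitors lower the luminescence signal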
[11] = growth suppression of PTEN-null colon cells, dose response, cell-based, HCT116 PTEN knockout (AID 1047); type: functional;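 note: HCT116 colon tumor cells with PTEN knocked out; cells exposed to compound for 60 hours before readout; potency for loss of cell viability measured by luminescence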
[12] = cytotoxicity toward NIH3T3 fibroblasts, dose response, counter-screen, cell-based, ATP luminescence, mouse fibroblasts (AID 2010); type: functional;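 note: cells exposed to compound for about 90 hours before reading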
[13] = growth suppression of beta-catenin-knockout colon cells, dose response, cell-based, HCT116, human colon tumor (AID 1045); type: functional;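 note: HCT116 colon tumor cells with beta catenin knocked out; cells exposed to compound for 60 hours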
[14] = biological target: T4, Bcl-2-related protein A1 (Mus musculus, UniProt Q07440); type: functional;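 note: confirmatory dose–response counterscreen on Bfl-1, used to check hits from a UBC13 polyubiquitin inhibitor campaign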
T4 sequence (Q07440 whole entry): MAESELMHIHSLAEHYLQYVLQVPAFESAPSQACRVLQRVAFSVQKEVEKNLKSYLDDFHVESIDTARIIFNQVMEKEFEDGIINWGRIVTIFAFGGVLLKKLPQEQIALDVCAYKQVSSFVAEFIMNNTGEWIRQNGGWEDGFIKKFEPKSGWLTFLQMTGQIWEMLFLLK

[15] = biological target: T2, Short transient receptor potential channel 4; test: mouse TRPC4 channel activators, dose response, cell-based, HEK293 TRPC4/mu-opioid, Fluo-4 calcium (AID 434937); type: functional
[16] = biological target: T3, Ubiquitin-conjugating enzyme E2 N; type: functional; remark: listed apart in the source
[17] = tested on: BJ; test: cytotoxicity toward BJ-TERT fibroblasts, dose response, cell-based, RAS-independent, luminescence (AID 1933); type: functional; conditions: Homo sapiens
[18] = tested on: BJ; test: cells; type: functional, cell-based; conditions: Homo sapiens
[19] = tested on: BJ; test: cytotoxicity toward BJ-TERT-LT-ST fibroblasts, dose response, cell-based, RAS-independent, luminescence (AID 1935); type: functional; conditions: Homo sapiens;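 note: BJ fibroblasts immortalized with TERT plus LT and ST oncogenes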
[20] = cytotoxicity toward DRD oncogenic fibroblasts, dose response, cell-based, non-viral oncogenic, luminescence (AID 1934); type: functional; conditions: Homo sapiens
[21] = biological target: T5, DNA repair and recombination protein RAD54-like (Homo sapiens, UniProt Q92698); test: inhibitors of human RAD54 branch migration, confirmation, biochemical, fluorescence, cherry-picked samples, dose series (AID 651657); type: functional
T5 sequence (Q92698 whole entry): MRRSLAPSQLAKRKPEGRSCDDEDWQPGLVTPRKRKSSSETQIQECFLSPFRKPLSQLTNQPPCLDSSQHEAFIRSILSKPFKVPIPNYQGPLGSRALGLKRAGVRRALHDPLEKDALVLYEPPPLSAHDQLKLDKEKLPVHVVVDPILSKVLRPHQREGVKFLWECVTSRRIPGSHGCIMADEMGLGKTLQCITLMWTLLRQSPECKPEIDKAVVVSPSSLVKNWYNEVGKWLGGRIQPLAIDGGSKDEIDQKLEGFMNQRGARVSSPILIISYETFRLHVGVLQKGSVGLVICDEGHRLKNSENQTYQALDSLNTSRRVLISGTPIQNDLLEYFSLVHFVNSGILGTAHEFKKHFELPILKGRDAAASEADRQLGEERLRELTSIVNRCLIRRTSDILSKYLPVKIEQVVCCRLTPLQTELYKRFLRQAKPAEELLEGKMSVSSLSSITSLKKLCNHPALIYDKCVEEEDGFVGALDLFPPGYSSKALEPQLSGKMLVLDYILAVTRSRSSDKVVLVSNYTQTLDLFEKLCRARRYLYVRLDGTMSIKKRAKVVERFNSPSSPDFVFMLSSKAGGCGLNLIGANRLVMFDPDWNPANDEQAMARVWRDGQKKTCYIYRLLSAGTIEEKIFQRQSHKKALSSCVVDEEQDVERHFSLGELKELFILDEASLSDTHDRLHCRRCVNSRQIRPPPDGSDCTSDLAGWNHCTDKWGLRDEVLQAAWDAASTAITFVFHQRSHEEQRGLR

[22] = tested on: Streptococcus sp. 'group A'; test: growth inhibition of control SK(-) GAS strain, dose response, counter-screen for streptokinase expression inhibitor project, luminescence, kanamycin, BacTiterGlo, confirmation (AID 1900); type: functional, organism-based
[23] = tested on: Streptococcus; test: Group A Streptococcus viability loss, dose response, counter-screen for streptokinase expression inhibitor project, luminescence, BacTiterGlo (AID 1915); type: functional, organism-based;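 note: potency for reduction of bacterial viability or growth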
[24] = biological target: T6, Microphthalmia-associated transcription factor (Homo sapiens, UniProt O75030); test: TRPM1 promoter luciferase signal decrease, dose response, MITF inhibitor project, cell-based, SK-MEL-5, cherry-picked, set 3 (AID 493073); type: functional
T6 sequence (O75030 whole entry): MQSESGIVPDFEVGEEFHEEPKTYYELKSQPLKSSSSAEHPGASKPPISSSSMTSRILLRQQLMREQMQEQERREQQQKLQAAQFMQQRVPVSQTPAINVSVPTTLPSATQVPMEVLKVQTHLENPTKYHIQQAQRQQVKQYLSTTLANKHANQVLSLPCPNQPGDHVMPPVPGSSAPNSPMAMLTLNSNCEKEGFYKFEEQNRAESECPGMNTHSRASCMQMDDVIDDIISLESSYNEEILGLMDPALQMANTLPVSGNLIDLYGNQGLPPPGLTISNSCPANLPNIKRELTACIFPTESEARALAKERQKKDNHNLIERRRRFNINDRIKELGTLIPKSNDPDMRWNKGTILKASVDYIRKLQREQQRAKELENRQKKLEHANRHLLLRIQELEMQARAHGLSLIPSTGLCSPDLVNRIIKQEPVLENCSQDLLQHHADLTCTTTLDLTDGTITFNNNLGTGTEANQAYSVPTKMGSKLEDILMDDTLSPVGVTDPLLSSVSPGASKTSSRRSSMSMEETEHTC

[25] = tested on: INS1; test: beta cell apoptosis inhibitors, cytokine rescue, dose response, luminescence, retest (AID 449756); type: functional, cell-based; conditions: Rattus norvegicus;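 note: cell death triggered by IL-1 beta plus TNF-alpha plus IFN-gamma mixture; protective hits raise ATP signal compared with cytokine alone wells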

Sequence of Peroxisome proliferator-activated receptor gamma/Nuclear receptor coactivator 1 (P37231 whole entry): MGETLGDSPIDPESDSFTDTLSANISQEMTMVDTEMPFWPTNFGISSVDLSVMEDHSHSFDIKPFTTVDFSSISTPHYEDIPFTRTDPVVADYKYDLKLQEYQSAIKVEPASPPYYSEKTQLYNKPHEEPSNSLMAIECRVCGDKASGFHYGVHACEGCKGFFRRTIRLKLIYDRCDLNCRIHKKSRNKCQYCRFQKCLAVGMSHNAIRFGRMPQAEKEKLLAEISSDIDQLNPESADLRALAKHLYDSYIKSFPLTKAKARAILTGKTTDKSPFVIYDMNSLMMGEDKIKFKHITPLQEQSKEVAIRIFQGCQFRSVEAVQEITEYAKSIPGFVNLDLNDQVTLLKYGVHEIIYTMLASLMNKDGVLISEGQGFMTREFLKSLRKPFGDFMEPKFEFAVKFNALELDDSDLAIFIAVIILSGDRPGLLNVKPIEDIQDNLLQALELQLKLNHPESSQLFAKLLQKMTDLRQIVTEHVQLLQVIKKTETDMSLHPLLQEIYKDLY
Sequence of Peroxisome proliferator-activated receptor gamma/Nuclear receptor coactivator 1 (Q15788 whole entry, further chain): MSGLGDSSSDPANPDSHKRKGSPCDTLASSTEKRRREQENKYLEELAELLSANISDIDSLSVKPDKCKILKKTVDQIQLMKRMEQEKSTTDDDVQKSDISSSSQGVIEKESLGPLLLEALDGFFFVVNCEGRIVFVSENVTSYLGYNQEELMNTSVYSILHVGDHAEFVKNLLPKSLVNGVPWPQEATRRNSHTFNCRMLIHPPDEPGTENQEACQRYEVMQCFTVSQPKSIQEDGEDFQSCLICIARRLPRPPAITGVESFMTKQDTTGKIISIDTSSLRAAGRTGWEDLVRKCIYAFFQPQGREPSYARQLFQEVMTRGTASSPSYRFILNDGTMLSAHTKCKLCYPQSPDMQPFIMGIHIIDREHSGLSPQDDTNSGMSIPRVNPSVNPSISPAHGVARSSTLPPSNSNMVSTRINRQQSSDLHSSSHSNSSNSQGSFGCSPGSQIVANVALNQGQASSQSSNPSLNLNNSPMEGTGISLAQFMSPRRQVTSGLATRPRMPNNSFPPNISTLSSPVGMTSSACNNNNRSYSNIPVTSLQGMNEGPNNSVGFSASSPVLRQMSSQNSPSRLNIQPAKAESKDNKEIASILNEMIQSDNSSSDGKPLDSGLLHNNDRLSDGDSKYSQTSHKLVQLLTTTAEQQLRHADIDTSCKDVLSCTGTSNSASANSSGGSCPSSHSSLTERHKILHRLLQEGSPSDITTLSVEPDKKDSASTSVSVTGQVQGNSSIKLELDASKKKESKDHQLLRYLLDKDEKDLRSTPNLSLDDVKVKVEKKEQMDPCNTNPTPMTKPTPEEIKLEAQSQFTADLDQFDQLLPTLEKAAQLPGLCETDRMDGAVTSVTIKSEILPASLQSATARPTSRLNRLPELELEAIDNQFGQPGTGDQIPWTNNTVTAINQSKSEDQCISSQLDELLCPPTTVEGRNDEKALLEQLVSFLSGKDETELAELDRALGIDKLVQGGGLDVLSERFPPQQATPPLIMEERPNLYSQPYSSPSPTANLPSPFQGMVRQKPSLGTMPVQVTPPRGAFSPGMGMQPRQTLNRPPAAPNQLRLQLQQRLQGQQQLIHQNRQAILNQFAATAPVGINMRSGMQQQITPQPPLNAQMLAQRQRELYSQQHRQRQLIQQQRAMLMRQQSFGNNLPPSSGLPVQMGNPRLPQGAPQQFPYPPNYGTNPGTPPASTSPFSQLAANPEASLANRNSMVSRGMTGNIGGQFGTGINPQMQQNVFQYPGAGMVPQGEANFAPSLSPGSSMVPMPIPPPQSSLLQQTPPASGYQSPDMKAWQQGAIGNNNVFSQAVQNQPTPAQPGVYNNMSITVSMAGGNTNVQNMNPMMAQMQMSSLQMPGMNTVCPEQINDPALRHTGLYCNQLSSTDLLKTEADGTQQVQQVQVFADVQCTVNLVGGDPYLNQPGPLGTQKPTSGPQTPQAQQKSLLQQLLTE
Sequence of Peroxisome proliferator-activated receptor gamma/Nuclear receptor coactivator 2 (P37231 whole entry): as the sequence (P37231 whole entry) above
Sequence of Peroxisome proliferator-activated receptor gamma/Nuclear receptor coactivator 2 (Q15596 whole entry, further chain): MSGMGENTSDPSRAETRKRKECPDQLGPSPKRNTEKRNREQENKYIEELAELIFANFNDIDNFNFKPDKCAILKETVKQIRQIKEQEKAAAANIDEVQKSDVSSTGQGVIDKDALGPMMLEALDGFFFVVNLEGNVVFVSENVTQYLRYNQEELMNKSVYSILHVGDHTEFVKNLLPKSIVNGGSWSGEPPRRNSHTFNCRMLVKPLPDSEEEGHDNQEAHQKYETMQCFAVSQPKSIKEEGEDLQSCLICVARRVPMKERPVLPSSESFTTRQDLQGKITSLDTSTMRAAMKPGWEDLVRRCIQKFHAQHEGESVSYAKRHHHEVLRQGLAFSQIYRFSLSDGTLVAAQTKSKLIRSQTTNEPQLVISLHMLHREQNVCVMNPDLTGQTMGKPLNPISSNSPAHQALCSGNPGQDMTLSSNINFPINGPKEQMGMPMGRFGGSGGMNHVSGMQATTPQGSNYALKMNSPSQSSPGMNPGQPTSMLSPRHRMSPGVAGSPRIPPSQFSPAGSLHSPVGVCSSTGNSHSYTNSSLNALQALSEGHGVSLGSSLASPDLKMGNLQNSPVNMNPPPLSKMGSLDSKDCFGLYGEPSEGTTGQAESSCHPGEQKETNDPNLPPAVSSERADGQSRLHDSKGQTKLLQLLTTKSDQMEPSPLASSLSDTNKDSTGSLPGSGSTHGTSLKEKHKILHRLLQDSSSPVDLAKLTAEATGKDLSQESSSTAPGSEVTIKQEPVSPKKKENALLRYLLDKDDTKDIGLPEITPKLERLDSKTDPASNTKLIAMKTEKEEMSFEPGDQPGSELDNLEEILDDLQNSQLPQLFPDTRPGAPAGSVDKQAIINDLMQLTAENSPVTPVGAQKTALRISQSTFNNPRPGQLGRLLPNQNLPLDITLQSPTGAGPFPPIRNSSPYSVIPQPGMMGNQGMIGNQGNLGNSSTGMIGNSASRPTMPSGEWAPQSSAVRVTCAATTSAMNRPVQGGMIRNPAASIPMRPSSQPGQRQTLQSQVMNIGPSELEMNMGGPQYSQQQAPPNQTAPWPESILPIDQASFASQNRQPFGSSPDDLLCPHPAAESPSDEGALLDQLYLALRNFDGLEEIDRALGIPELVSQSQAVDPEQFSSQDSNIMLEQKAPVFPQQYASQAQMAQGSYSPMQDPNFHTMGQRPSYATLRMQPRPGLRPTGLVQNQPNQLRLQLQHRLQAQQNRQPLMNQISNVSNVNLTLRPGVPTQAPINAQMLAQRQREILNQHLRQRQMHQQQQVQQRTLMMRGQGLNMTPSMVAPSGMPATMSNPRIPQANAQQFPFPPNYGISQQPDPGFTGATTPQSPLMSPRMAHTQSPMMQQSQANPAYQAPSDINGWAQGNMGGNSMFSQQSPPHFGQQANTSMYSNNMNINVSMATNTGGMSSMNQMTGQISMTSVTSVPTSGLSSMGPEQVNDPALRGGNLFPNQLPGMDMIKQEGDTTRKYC
Sequence of Beta-galactosidase (Q8VNN2 whole entry): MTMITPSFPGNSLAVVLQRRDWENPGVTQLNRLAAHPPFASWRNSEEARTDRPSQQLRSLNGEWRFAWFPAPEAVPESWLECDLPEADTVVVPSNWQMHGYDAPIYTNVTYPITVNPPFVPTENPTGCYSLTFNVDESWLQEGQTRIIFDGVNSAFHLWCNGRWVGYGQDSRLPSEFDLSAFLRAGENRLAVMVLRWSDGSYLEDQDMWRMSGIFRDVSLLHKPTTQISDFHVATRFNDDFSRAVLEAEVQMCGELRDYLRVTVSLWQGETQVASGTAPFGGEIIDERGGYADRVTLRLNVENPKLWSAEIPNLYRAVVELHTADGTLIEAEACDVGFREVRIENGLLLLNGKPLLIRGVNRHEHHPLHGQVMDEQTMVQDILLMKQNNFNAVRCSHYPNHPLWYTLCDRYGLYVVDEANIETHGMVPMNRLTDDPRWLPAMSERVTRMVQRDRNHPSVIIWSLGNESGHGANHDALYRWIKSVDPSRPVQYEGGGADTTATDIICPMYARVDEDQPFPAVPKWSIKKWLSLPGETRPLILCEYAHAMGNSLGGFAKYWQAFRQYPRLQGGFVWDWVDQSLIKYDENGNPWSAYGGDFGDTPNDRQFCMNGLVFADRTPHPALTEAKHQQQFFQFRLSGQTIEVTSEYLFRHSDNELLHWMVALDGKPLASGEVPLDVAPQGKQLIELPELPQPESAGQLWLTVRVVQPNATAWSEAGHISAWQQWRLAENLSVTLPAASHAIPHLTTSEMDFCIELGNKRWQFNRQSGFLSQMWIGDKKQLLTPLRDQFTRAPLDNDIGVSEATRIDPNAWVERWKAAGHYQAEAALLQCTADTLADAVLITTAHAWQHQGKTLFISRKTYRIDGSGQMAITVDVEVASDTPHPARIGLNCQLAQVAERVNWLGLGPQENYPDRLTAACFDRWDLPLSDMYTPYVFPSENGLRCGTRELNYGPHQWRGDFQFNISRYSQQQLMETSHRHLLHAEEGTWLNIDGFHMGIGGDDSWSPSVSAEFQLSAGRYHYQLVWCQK

SMILES: OCC1(CCc2ccccc2)CCN(Cc2ccc3nsnc3c2)CC1
- EC50 [3]: 42.2 µM (inactive)
- EC50 [4]: > 79.4 µM (not active)
- EC50 [5]: 29.1 µM (not active)
- EC50 [6]: 8.41 µM (active)

SMILES: O=C(c1ccc(=O)oc1)N1CCOCC1
- IC50 [7]: 3.67 µM (active)

SMILES: COc1ccc(-c2cc(C#N)nc(N3CCNCC3)n2)cc1
- EC50 [10]: 3.69 µM (active)
- EC50 [11]: 15.2 µM (active)
- EC50 [12]: > 60 µM (not active)
- EC50 [13]: 9.93 µM (active)
- IC50 [14]: > 20 µM (inactive)
- IC50 [8]: 15.5 µM (active)
- EC50 [15]: 1.88 µM (active)
- IC50 [16]: 15.9 µM (active)

SMILES: Cc1ccc2c(c1)C(=O)C(=O)N2c1ccc(Cl)cc1
- EC50 [1]: > 40 µM (inactive)
- IC50 [2]: 33.2 µM (not active)

SMILES: COc1ccc(CC(=O)Nc2ccc(-c3nc4cc(C)ccc4o3)c(O)c2)cc1OC
- EC50 [3]: 27.8 µM (inactive)
- EC50 [4]: > 79.4 µM (not active)
- EC50 [5]: 24 µM (not active)

SMILES: Cc1cc[n+](CC(=O)c2cccc([N+](=O)[O-])c2)c2ccccc12
- EC50 [17]: 25.1 µM (active)
- EC50 [18]: > 150 µM (not active)
- EC50 [19]: > 150 µM (inconclusive)
- EC50 [20]: > 150 µM (not active)
- IC50 [7]: > 99 µM (inactive)

SMILES: CN1CCC(N(C)c2nc(-c3ccccc3)nc3ccccc23)CC1
- AC50 [21]: 18.1 µM (active)

SMILES: C/C(=N\NC(=O)COc1ccccc1-c1ccccc1)c1ccccn1
- EC50 [22]: 1.05 µM (active)
- EC50 [1]: > 40 µM (inactive)
- IC50 [2]: 3.73 µM (active)
- EC50 [23]: 4.08 µM (active)
- AC50 [24]: 4.58 µM (active)
- AC50 [25]: 1.32 µM (active)

SMILES: COc1ccc2nc(C)cc(Nc3ccc(N4CCOCC4)cc3)c2c1
- EC50 [10]: 1.79 µM (active)
- EC50 [12]: 27 µM (active)
- AC50 [21]: 17.4 µM (active)

Results, then the compound that gave them:

- EC50 [1]: > 40 µM (inactive)
- IC50 [2]: 5.7 µM (active)
SMILES: Cc1ccc(NCC(=O)c2ccccc2)cc1Cl

- EC50 [3]: > 79.4 µM (inactive)
- EC50 [4]: > 79.4 µM (not active)
- EC50 [5]: > 79.4 µM (not active)
SMILES: Cn1c(=O)cc(SCC(=O)N2CCCC2)c2ccccc21

- EC50 [3]: > 79.4 µM (inactive)
- EC50 [4]: > 79.4 µM (not active)
- EC50 [5]: > 79.4 µM (not active)
- IC50 [8]: > 20 µM (inactive)
- AC50 [9]: inconclusive
SMILES: CCc1cc2c(=O)n(-c3ccccc3)c(=S)[nH]c2s1

- AC50 [21]: 34.7 µM (active)
SMILES: CCCN1CCN(CCCNC(=O)c2cc3c(=O)n(C)c4ccccc4c3n2C)CC1

- EC50 [1]: > 40 µM (inactive)
- IC50 [2]: 7.99 µM (active)
SMILES: S=C(N/N=C/c1ccc(Cl)cc1)N1CCOCC1
